The values below come from article PMC7179434, “1,2,4-Triazolo[1,5-a]pyrimidines as a Novel Class of Inhibitors of the HIV-1 Reverse Transcriptase-Associated Ribonuclease H Activity” (Molecules, 2020).

Where two headings read alike, the source gives them in different places. Where only a bound is given, the exact number is not on record here.

For data set [1], the target named is HIV-1 RT-associated RDDP (Human immunodeficiency virus type 1 group M subtype B, UniProt P03366). Put plainly: biochemical. The class given is biochemical.
Data set [2] has as its target HIV-1 RT-associated RNase H (Human immunodeficiency virus type 1 group M subtype B, UniProt P03366). The experiment in a line: biochemical. The class given is biochemical.
Setting [3] is: wt RT, average and standard deviation of three independent experiments in duplicate.

Regarding `CCCCOc1ccc(C(=O)Nc2nc3n(n2)C(c2ccccc2)C=C(C)N3)cc1` (stereo not drawn) [Compound 11a], the IC50 in data set [1] is > 100 µM; in data set [2] it was 17.7 ± 2.7 µM.

In turn, `CCCCc1ccc(C(=O)Nc2nc3nc(C)cc(-c4ccccc4)n3n2)cc1` [Compound 12b, 4-Butyl-N-(5-methyl-7-phenyl-[1,2,4]triazolo[1,5-a]pyrimidin-2-yl)benzamide] showed a melting point of 157 to 158 °C. Further, the IC50 in data set [1] is > 100 µM. The compound also displayed an IC50 in data set [2] of 12.3 ± 1.5 µM.

`Cc1cc(-c2ccccc2)n2nc(NC(=O)c3ccccc3F)nc2n1` [Compound 12c, 2-Fluoro-N-(5-methyl-7-phenyl[1,2,4]triazolo[1,5-a]pyrimidin-2-yl)benzamide] had a melting point of 292 to 302 °C. Also, the IC50 in data set [1] is > 100 µM. In data set [2], the IC50 was > 100 µM.

Consider `Cc1cc(-c2ccccc2)n2nc(NC(=O)c3ccc([N+](=O)[O-])cc3)nc2n1` [Compound 12d, N-(5-Methyl-7-phenyl-[1,2,4]triazolo[1,5-a]pyrimidin-2-yl)-4-nitrobenzamide], for which the melting point lay within 290 to 293 °C. Also, the IC50 in data set [1] is > 100 µM. Further, the IC50 in data set [2] is > 100 µM.

The compound `Cc1cc(-c2ccccc2)n2nc(NC(=O)c3ccc(N)cc3)nc2n1` [Compound 12e, 4-Amino-N-(5-methyl-7-phenyl-[1,2,4]triazolo[1,5-a]pyrimidin-2-yl)benzamide] came in with a melting point of 179 to 202 °C. The IC50 in data set [1] was > 100 µM. Besides, the IC50 in data set [2] is > 100 µM.

`COc1ccc(C(=O)Nc2nc3nc(C)cc(-c4ccccc4)n3n2)cc1OC` [Compound 12f, 3,4-Dimethoxy-N-(5-methyl-7-phenyl-[1,2,4]triazolo[1,5-a]pyrimidin-2-yl)benzamide] yielded a melting point of 131 to 151 °C. Moreover, the IC50 in data set [1] was > 100 µM. Moreover, the IC50 in data set [2] is > 100 µM.

`Cc1cc(-c2ccccc2)nc2nc(NC(=O)c3ccccc3F)nn12` [Compound 13c, 2-Fluoro-N-(7-methyl-5-phenyl-[1,2,4]triazolo[1,5-a]pyrimidin-2-yl)benzamide] showed a melting point of 165 to 169 °C. For the same compound, the IC50 in data set [1] was > 100 µM. The IC50 in data set [2] is > 100 µM.

In turn, `Cc1cc(-c2ccccc2)nc2nc(NC(=O)c3ccc([N+](=O)[O-])cc3)nn12` [Compound 13d, N-(7-Methyl-5-phenyl-[1,2,4]triazolo[1,5-a]pyrimidin-2-yl)-4-nitrobenzamide] displayed a melting point of 316 to 318 °C. Also, the IC50 in data set [1] was > 100 µM. Moreover, in data set [2], the IC50 is 60.1 ± 3.3 µM.

For the compound `CCCCc1ccc(C(=O)Nc2nc3nc(C)cc(C)n3n2)cc1` [Compound 14b, 4-Butyl-N-(5,7-dimethyl-[1,2,4]triazolo[1,5-a]pyrimidin-2-yl)benzamide], the melting point fell in the range of 175 to 177 °C. Moreover, in data set [2], the IC50 is > 100 µM. In addition, the “HIV-1 RNaseH IC50” value in data set [2] (setting [3]) is “complete loss of activity”.

For the compound `COc1ccc(-c2cc(C)nc3nc(N(C(=O)c4ccccc4)C(=O)c4ccccc4)nn23)cc1OC` [Compound 16hh, N-benzoyl-N-(7-(3,4-dimethoxyphenyl)-5-methyl-[1,2,4]triazolo[1,5-a]pyrimidin-2-yl)benzamide], the half-inhibitory concentration (IC50) is > 100 µM in data set [1] and 6.74 ± 0.55 µM in data set [2]. Moreover, the “HIV-1 RNaseH IC50” value in data set [2] (setting [3]) was “low micromolar range”.

Regarding `Cc1cc(-c2ccccc2)nc2nc(C(=O)Nc3ccc(O)c(O)c3)nn12` [Compound 19g, N-(3,4-Dihydroxyphenyl)-7-methyl-5-phenyl-[1,2,4]triazolo[1,5-a]pyrimidine-2-carboxamide], the melting point is 247 to 250 °C. Moreover, the IC50 in data set [2] stood at 43.1 ± 2.1 µM. Further, the “HIV-1 RNaseH IC50” value in data set [2] (setting [3]) is “markedly decreased anti-RNase H activity”.

For the compound `CCOC(=O)C(=O)CC(=O)C=Cc1cccn1Cc1ccc(F)cc1` [RDS1643, reference compound], in data set [2] (wt RT, average and standard deviation of three independent experiments in duplicate, read-out: HIV-1 RNaseH IC50), the IC50 came to 9 ± 2 µM.

By IC50 is commonly meant the concentration that inhibits the measured activity by half. For orientation: melting point means the temperature of the solid-liquid transition.
